This note sets out measurements from US12570694B2, “Peptides and pharmaceutical, nutraceutical or veterinary compositions for hair loss prevention and/or treatment” (VYTRUS BIOTECH, S.L., priority 2016, dated 2026).

Non-standard residues stand in square brackets, D forms with d. sY = N[C@@H](Cc1ccc(OS(=O)(=O)O)cc1)C(=O)O

What all share (format): cell-based
Assay [1] deals with human dermal fibroblasts (HDF). Kind of assay: Wound healing (scratch) assay on human dermal fibroblasts. The settings on record: FIG. 17; 5 μg/ml and 0.05 μg/ml; 5 days of treatment; triplicate mean; vs 0.1% FBS basal, 10% FBS and TGF-β1 positive controls. How it is done: In order to test the effect of the sulfaction state of the peptides on their activity, it is herewith provided as reference example a wound healing assay conducted onto human dermal fibroblasts (HDF).
Human dermal fibroblasts were seeded in a 24-well plate and were grown to confluence. A 2 mm width scratch was done on the culture monolayer. Then the test products in culture medium were added and the cicatrisation process was followed by means of phase contrast microscopy. With this aim, photographs were taken at initial of the test (T=0 h) before the scratching and after the treatment (at 12 h and at 72 h). Cicatrisation process was evaluated by quantifying wound area reduction at each time.
Data at the end of the test (5 days of treatment) are depicted in FIG. 17, wherein the wound healing potential is depicted as the Healed Area (in μm^2) for assayed peptide.
The results derive from a triplicate test. Values of cicatrised area (or % of cicatrisation) are the mean values.

Assay [2] concerns human hair follicle papilla cells (HFDPC). Kind of assay: In vitro proliferation of hair follicle dermal papilla cells (BrdU incorporation). The following applies: FIGS. 2 and 3; peptides with or without end-terminal modifications at 5.86, 2.93, 1.46 μg/ml; basal control = 100%. The method, then:
In order to test the effects of the cell-free supernatants, as well as of the peptides of the invention, a proliferation assay was conducted onto human hair follicle papilla cells (CELL APPLICATIONS, INC; Normal human hair follicles from temporal scalp. Single donor: Ref. 602-05a. Lot. 2092.).
The culture media was a Papilla Cell Basal Medium supplemented with the Growth Supplements kit (Relative composition: Fetal bovine serum, growth factors and antibiotics. Application: 6% v/v).
HFDPC proliferation was assessed determining the proliferation index (%). Cell DNA replication was quantified by means of incorporated bromodeoxiuridine (BrdU) into DNA of treated cells. BrdU assay allows measuring cell proliferation based on cell capability of incorporating BrdU during S-phase of the cell cycle. Cells being divided incorporated BrdU that is further detected by means of antibodies and immunocytochemistry detection.
Cells were seeded at confluence in a 96-well plate. After stabilization and synchronization of cell cultures the tested products were added (at the final concentration indicated in Table 1 of Examples. After that, BrdU was added to cultures and HFDPC were incubated at 37° C. until complete BrdU incorporation. BrdU amounts were proportional to the number of cell divisions and thus to the growth of the treated culture.
Data are depicted in FIG. 1, FIG. 2 and FIG. 3, wherein it is shown the proliferation index (%) of HFDPC, calculated as the percentage of growing in relation to the basal control (non-treated HFDPC) which is accorded a 100% value of proliferation index.

Assay [3] concerns human dermal fibroblasts (HDF). Kind of assay: In vitro proliferation of human dermal fibroblasts (BrdU incorporation). The settings on record: FIGS. 6 and 7; 4Aa at 25, 12.5, 1.25 μg/ml, 5Aa at 1.25, 0.63, 0.25 μg/ml; basal control = 100%. How it is done: In order to further test the effects of the peptides of the invention in an additional setting, a proliferation assay was conducted onto human dermal fibroblasts (HDF).
Normal Human Dermal Fibroblasts (HDF) were obtained from foreskin samples, surpluses from surgery of young donors (0-3 years old) and stablished by using the standard method of explants growth and enzymic dissociation of proliferating cells. Cells were propagated and grown in Growth Medium (GM): Dulbecco's 1 g/L glucose medium, supplemented with 10% foetal bovine serum (FBS, PAA); 2 mM L-glutamine (Lonza); and antibiotics (100 μg/ml Penicillin and 100 U/ml of Streptomycin, Lonza). For routine subcultivation and propagation of the primary culture, cells were washed twice with PBS ([…] buffered saline, pH 7.4), harvested with trypsin—EDTA (Gibco) and counted in Neubauer chamber before its seeding in a new cell culture flask (Falcon, 75 cm2).
Test products were prepared at the defined final concentrations by its dilution in Maintenance Medium (Dulbecco's 1 g/L glucose medium, supplemented with 1% foetal bovine serum (FBS, PAA); 2 mM L-glutamine (Lonza); and antibiotics (100 μg/ml Penicillin and 100 U/ml of Streptomycin, Lonza), just before each application.
HFD proliferation was assessed determining the proliferation index (%). Cell DNA replication was quantified by means of incorporated bromodeoxiuridine (BrdU) into DNA of treated cells. […] Cells being divided incorporated BrdU that is further detected by means of antibodies and immunocytochemistry detection. […]
Data are depicted in FIG. 6 and FIG. 7, wherein it is shown the proliferation index (%) of HDF, calculated as the percentage of growing in relation to the basal control (non-treated HDF) which is accorded a 100% value of proliferation index. […]
Data are depicted in FIG. 16, wherein it is shown the proliferation index (%) of HDF, calculated as the percentage of growing in relation to the basal control (non-treated HDF) which is accorded a 100% value of proliferation index.

For “CH3—C(O)—Xaa1IYT-NH2 (Ac-[sY]IYT-NH2; SMILES CC[C@H](C)[C@H](NC(=O)[C@H](Cc1ccc(OS(=O)(=O)O)cc1)NC(C)=O)C(=O)N[C@@H](Cc1ccc(O)cc1)C(=O)N[C@H](C(N)=O)[C@@H](C)O) [SEQ ID NO: 2, Xaa1 is a tyrosine residue with the side-chain hydroxyl group replaced by a radical —OSO3H]”, the “wound healing potential, Healed Area” value in assay [1] was “have the same activity as the 4Aa non-sulfated peptide”.

Take “CH3—C(O)—YIXaa2T-NH2 (Ac-YI[sY]T-NH2; SMILES CC[C@H](C)[C@H](NC(=O)[C@H](Cc1ccc(O)cc1)NC(C)=O)C(=O)N[C@@H](Cc1ccc(OS(=O)(=O)O)cc1)C(=O)N[C@H](C(N)=O)[C@@H](C)O) [SEQ ID NO: 3, Xaa2 is a tyrosine residue with the side-chain hydroxyl group replaced by a radical —OSO3H]”: the “wound healing potential, Healed Area” value in assay [1] is given as “have the same activity as the 4Aa non-sulfated peptide”.

Consider “CH3—C(O)—YIYTQ-NH2 (Ac-YIYTQ-NH2) [SEQ ID NO: 7]”, for which the “proliferation index of HFDPC” value in assay [2] is listed as “can promote cell proliferation”. The “proliferation index of HDF” value in assay [3] was “can promote cell proliferation of HDF”.
